The text below walks through data of US20240180883A1, “TREATMENT OF MIGRAINE” (Allergan Pharmaceuticals International Limited, priority 2020, published 2024).

For data set [1] the following is noted: cited from earlier work; for liver enzyme levels: clinical trials.
Data set [2] in a line: Study B: adverse events. The conditions noted are these: Treatment B: rifampin 600 mg once daily for 5 days, fasted.

Regarding `O=C(CN1C(=O)C2(CCCC2)NC[C@H]1c1cc(F)cc(F)c1)Nc1ccc2c(c1)C[C@@]1(C2)C(=O)Nc2ncccc21` [MK-3207], the liver enzyme levels result in data set [1] is “elevated liver enzyme levels were observed”.
Consider `NCCCC[C@H](NC(=O)[C@@H](Cc1cc(Br)c(O)c(Br)c1)NC(=O)N1CCC(N2Cc3ccccc3NC2=O)CC1)C(=O)N1CCN(c2ccncc2)CC1` [olcegepant], for which the “efficacy in the acute treatment of migraine” value in data set [1] (IV formulation) is reported as “efficacious in the acute treatment of migraine”. In addition, the oral bioavailability result in data set [1] (human, in vivo, po) was “not orally bioavailable”.
`CO[C@H]1/C=C/O[C@@]2(C)Oc3c(C)c(O)c4c(O)c(c(/C=N/N5CCN(C)CC5)c(O)c4c3C2=O)NC(=O)/C(C)=C\C=C\[C@H](C)[C@H](O)[C@@H](C)[C@@H](O)[C@@H](C)[C@H](OC(C)=O)[C@@H]1C` [rifampin, reference compound]: in data set [2], the “AEs leading to discontinuation” value is reported as 0 n (%), the “Any AE” value is on record as 1 (3.3) n (%), the Deaths is 0 n (%) and the “Dry Mouth” value was 0 n (%). Besides, in data set [2], the Flatulence was 0 n (%), the “Gastrointestinal Disorders” value is given as 0 n (%), the Headache is reported as 1 (3.3) n (%) and the Nausea is given as 0 n (%). In data set [2], the “Nervous System Disorders” value is 1 (3.3) n (%), the SAEs is 0 n (%), the TEAEs is 1 (3.3) n (%) and the “Treatment related TEAEs” value is on record as 1 (3.3) n (%).
With `O=C(N[C@@H]1CC[C@@H](c2cccc(F)c2F)CN(CC(F)(F)F)C1=O)N1CCC(n2c(=O)[nH]c3ncccc32)CC1` [telcagepant], the liver enzyme levels result in data set [1] is reported as “elevated liver enzyme levels were observed”.
